Results taken from paper PMC9402538, “Rational design of a sensitivity-enhanced tracer for discovering efficient APC–Asef inhibitors” (Nature Communications, 2022).
Where a SMILES comes first, the peptide text is derived from it. [ ]: non-standard residue; d: D form. The star is where a group is joined. Bz = O=C(c1ccccc1)*

Assays:
APC (303–739) = target: T1, APC (303–739) (Homo sapiens, UniProt P25054); test: FP competitive assay using tracer 7; format: binding; details: IC50, Tracer 7, Supplementary Table 4
T1 sequence (P25054 303-739): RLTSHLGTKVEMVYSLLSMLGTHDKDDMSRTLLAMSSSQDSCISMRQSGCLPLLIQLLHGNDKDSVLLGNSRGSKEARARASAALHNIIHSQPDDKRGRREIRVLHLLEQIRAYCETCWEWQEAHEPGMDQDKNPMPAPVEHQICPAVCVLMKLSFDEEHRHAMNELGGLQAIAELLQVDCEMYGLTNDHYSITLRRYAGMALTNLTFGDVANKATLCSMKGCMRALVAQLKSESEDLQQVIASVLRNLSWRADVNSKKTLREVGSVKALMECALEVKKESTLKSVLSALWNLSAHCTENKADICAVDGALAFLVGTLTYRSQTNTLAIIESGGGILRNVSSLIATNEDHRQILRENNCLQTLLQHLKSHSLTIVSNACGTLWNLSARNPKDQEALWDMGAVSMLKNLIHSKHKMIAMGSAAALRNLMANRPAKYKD
Method: (§1) FITC-labeled tracer peptides were obtained from Changzhou Kanglong Biotech Ltd. (Changzhou, Jiangsu, China). […]. The FP signal changes upon tracer binding were measured after 1.5 h of incubation using a Synergy neo microplate reader (BioTek Instruments, Inc.) and plotted against the protein concentration. The corresponding EC50 values were generated by fitting the curves with a nonlinear regression model. […]. To make a working solution, APC (303–739) was diluted in FP buffer (50 mM HEPES, pH 7.5, 300 mM NaCl, 1 mM EDTA, 1 mM DTT). The diluted APC protein (91 μL) was combined with a serial dilution of peptides (4 μL) and incubated at room temperature for 1 h, followed by the addition of 5 μL of 400 nM tracer 7. The FP signals were measured after 1.5 h of incubation at room temperature using a Synergy neo microplate reader. Three controls were included on each plate, i.e., blank (without protein and tracer), 100% inhibition (free tracer only), and 0% inhibition (protein/tracer complex only) controls. All experiments were performed in triplicate. The IC50 values of peptides were calculated by nonlinear regression analysis using GraphPad Prism 7.0 software.

APC = target: T2, APC (Homo sapiens, UniProt P25054); test: FP competitive assay using tracer 1; format: binding
T2 sequence (P25054 303-739): T1 sequence (P25054 303-739)
Method: In our previous study, we established an FP assay for screening APC–Asef inhibitors using FITC-labeled tracer 1 (Ac–^176[…][FITC]^195–NH2)[16]. […]. However, their Kd values measured by isothermal titration calorimetry (ITC) actually vary up to more than 20 times[16],[17]. […].
as §1, with “The diluted APC protein (91 μL) was combined with a serial dilution of peptides (4 μL) and incubated at room temperature for 1 h, followed by the addition of 5 μL of 400 nM tracer 7.” left out

## C[C@H](NC(=O)c1ccccc1)C(=O)NCC(=O)N[C@@H](CCC(=O)O)C(=O)N[C@@H](CO)C(=O)N[C@@H](Cc1ccc(O)cc1)C(=O)N[C@@H](Cc1ccc(O)cc1)C(=O)N[C@@H](CCC(=O)O)C(N)=O [MAI-458] (Bz-AGESYYE-NH2)
APC (303–739)
  IC50: 900 ± 30 nM
APC
  IC50: 590 ± 140 nM

## CC(C)C[C@H](NC(=O)[C@H](CO)NC(=O)[C@H](CCC(=O)O)NC(=O)CNC(=O)[C@H](C)NC(=O)c1ccccc1)C(=O)N[C@@H](Cc1ccc(O)cc1)C(=O)N[C@H](CCC(=O)O)C(N)=O [MAI-465] (Bz-AGESLY[dE]-NH2)
APC
  IC50: 750 ± 150 nM
